Patent US20240316130A1 (priority 2023, published 2024)
Entries after “also recorded” stand apart in the source; their conditions may differ.

Tested on: ASS1^KO B16F10 cells
Assay type: cell-based, murine

SMILES | rescue of MYXV replication by supplement
NC(=NCCCC(N)C(=O)O)NC(CC(=O)O)C(=O)O (centres unmarked) [argininosuccinate] | support myxoma virus replication; also recorded: remained rescuable
NC(=O)NCCC[C@H](N)C(=O)O [citrulline, L-Citrulline] | not able to divide or support myxoma virus replication; also recorded: could no longer be rescued
